From PubChem BioAssay AID1645863 (Buhrlage Lab, Dana-Farber Cancer Institute and Novartis …, 2021)
Activity calls are given as the source filed them. No rule for the calls is given here.

What follows are compounds tested against Ubiquitin carboxyl-terminal hydrolase 10 (Homo sapiens) (UniProt Q14694) (assay: ubiquitin-specific protease 10 DUB inhibitors, concentration-effect, biochemical, verification of primary screen actives (AID 1645863;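 also: potency values describe inhibition of USP10 cleavage of a fluorogenic ubiquitin substrate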)). Settings: USP10 deubiquitinase enzymatic assay.
Sequence of Ubiquitin carboxyl-terminal hydrolase 10 (Homo sapiens) (Q14694 whole entry, looked up): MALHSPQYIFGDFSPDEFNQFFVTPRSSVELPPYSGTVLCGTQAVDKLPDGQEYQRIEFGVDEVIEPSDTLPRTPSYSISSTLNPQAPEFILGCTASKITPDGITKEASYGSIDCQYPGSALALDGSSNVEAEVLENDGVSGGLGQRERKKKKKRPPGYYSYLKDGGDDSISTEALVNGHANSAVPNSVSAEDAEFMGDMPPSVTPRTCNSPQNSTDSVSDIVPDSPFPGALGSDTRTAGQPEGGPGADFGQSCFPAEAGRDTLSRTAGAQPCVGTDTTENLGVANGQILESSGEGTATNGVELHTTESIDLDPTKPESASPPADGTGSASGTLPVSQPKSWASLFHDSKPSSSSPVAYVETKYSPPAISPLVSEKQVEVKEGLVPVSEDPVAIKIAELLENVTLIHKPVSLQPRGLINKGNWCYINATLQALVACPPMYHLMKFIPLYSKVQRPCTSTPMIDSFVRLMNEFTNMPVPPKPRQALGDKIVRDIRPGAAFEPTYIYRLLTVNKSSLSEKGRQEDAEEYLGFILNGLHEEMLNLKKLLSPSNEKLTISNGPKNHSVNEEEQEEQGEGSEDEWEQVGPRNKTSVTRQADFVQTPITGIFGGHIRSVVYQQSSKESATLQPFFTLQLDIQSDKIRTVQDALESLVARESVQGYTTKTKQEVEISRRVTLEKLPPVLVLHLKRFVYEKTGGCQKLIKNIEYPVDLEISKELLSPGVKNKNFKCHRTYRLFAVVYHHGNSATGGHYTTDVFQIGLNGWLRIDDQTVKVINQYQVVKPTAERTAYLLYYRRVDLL

SMILES	IC50
CC(C)NC(=O)Cn1ccn2nc(-c3ccc(Cl)cc3)cc2c1=O	> 40 µM (inactive)
O=S1(=O)CCN(CC2CCCO2)c2c(Oc3ccccc3)nc(F)c(Cl)c21 (stereo not drawn)	> 40 µM (inactive)
Cc1ccc2nc(NC(=O)/C=C/c3ccc4c(c3)OCO4)sc2c1	15.1 µM
Cn1cc(C(=O)Nc2ccccc2)c2[nH]c(=O)n(Cc3ccccc3)c(=O)c21	> 40 µM (inactive)
O=C(CCCc1nnc2c(=O)n(-c3cccc(F)c3)ccn12)NCc1ccc(Cl)cc1	18.2 µM
Cc1ccc(-c2cc(=O)n(CC(=O)Nc3ccc(C(C)C)cc3)cn2)cc1	> 40 µM (inactive)
Cc1cc(C)c(NC(=O)Cn2c(=O)n(CCC(=O)NCc3ccc4c(c3)OCO4)c(=O)c3sccc32)c(C)c1	21.4 µM
Cc1cc(OCC(=O)Nc2ccccc2C(=O)Nc2ccccc2)ccc1Cl	24.6 µM
O=C(Nc1ccncc1)c1cn(Cc2ccccc2)cc2c(=O)n(-c3ccccc3)nc1-2	> 40 µM (inactive)
CN1c2ccccc2C(=O)NC12CCN(C(=O)NCc1ccccc1)CC2	> 40 µM (inactive)
CCc1cccc(NC(=O)Cc2nnc3ccc(-c4nc(C)no4)cn23)c1	> 40 µM (inactive)
O=C1CC(C(=O)Nc2ccc3c(c2)OCO3)n2nc(SCc3ccccc3)nc2N1 (stereo not drawn)	> 40 µM (inactive)
COc1ccc(-n2ccn3c(CCC(=O)Nc4cccc(C)c4)nnc3c2=O)cc1	> 40 µM (inactive)
Cc1ccc(NC(=O)Cc2sc(Nc3ccc(C)cc3)nc2O)cc1	> 40 µM (inactive)
O=C(Cn1cnc2cc([N+](=O)[O-])ccc2c1=O)NCc1ccc2c(c1)OCO2	> 40 µM (inactive)
O=C(NCCN1CCOCC1)c1cn2cc(Cl)ccc2n1	> 40 µM (inactive)
COc1cc(OC)c(NC(=O)c2cc(-c3ccccn3)n[nH]2)cc1Cl	28.9 µM
Cc1cccc(COc2ccc(C3SCC(=O)Nc4n[nH]c(C)c43)cc2)c1 (stereo not drawn)	> 40 µM (inactive)
Cc1ccc(-n2nc(C)c3c2NC(=O)CC3C(=O)c2cc3ccccc3o2)cc1 (stereo not drawn)	> 40 µM (inactive)
Cc1cc(N2CCN(c3ncccn3)CC2)nc2ccc(NC(=O)c3ccncc3)cc12	> 40 µM (inactive)

SMILES	IC50
CCOc1ccc2cc3c(nc2c1)OC(=O)N(Cc1ccc(OC)cc1)C3	5.74 µM
O=C(Cn1c(=O)n(-c2ccc(CC(=O)NC3CCCC3)cc2)c(=O)c2ccccc21)Nc1ccccc1[N+](=O)[O-]	19.9 µM
COc1ccc(-c2nc(Cn3nnc(C(=O)Nc4ccc(C)c(C)c4)c3N)c(C)o2)cc1	29.1 µM
COc1cc2c(=O)n(CCC(=O)NC3CCCC3)c(=O)n(CC(=O)Nc3cccc(Cl)c3)c2cc1OC	36.1 µM
CSc1ccc(CNC(=O)Cn2c(=O)[nH]c3c(-c4ccccc4)c[nH]c3c2=O)cc1	> 40 µM (inactive)
O=C(CCn1c(=O)c2sccc2n(Cc2ccc([N+](=O)[O-])cc2)c1=O)NCc1ccccc1	> 40 µM (inactive)
Cc1ccc(CS(=O)(=O)c2cn(CC(=O)NCCc3ccccc3)c3ccccc23)cc1	> 40 µM (inactive)
C=C[C@]1(C)CC[C@]2(C)[C@@H](C1)[C@@H](O)C[C@H]1[C@]3(C)CCC[C@@]12OC3=O	> 40 µM (inactive)
CC(C)c1ccc(NC(=O)COC(=O)c2ccc(NS(=O)(=O)c3ccc4c(c3)OCCO4)cc2)cc1	22.3 µM
CC(NC(=O)c1ccccc1)c1nc2ccccc2n1CC(=O)Nc1ccc2c(c1)OCO2 (stereo not drawn)	11.5 µM
Cc1ccccc1NC(=O)Cn1c(=O)n(-c2ccc(CC(=O)NCCc3ccccc3)cc2)c(=O)c2sccc21	12.8 µM
COC(=O)c1cc2c(ccn2-c2ccc(F)cc2)n1CC(=O)NC1CCCCC1	> 40 µM (inactive)
Cc1ccc(C(=O)Nc2ccc3c(c2)Sc2ncccc2C(=O)N3C(C)C)cc1C	> 40 µM (inactive)
CC(=O)c1ccc(NC(=O)CCc2c(C)c3c(C)nn(-c4ccccc4)c3n(C)c2=O)cc1	> 40 µM (inactive)
Cc1ncc(CO)c2c1Oc1nc(-c3cccc(Cl)c3)nc(SCC(=O)N3CCCCC3)c1C2	> 40 µM (inactive)
COc1ccc(OC)c2c(C)cc(N3CC(C)CC(C)C3)nc12 (stereo not drawn)	> 40 µM (inactive)
O=C(Nc1cccc(-c2nc3cnccc3o2)c1)c1ccc(Br)o1	> 40 µM (inactive)
COc1cccc(CNC(=O)c2nnn(CC(=O)Nc3cc(C)ccc3C)c2N)c1	29.9 µM
COCCCN1CCS(=O)(=O)c2c(Cl)c(F)nc(Oc3ccccc3F)c21	> 40 µM (inactive)
COc1ccc(CNC(=O)CN2C(=O)CC(c3ccccc3)=Nc3ccccc32)cc1	> 40 µM (inactive)

SMILES	IC50
COc1ccc2cc(C(=O)N3CCC(C(C)C(=O)NCc4cccc(F)c4)CC3)[nH]c2c1 (stereo not drawn)	38 µM
O=c1[nH]c(C2CCN(S(=O)(=O)c3ccc(S(=O)(=O)NC4CCCC4)cc3)CC2)nc2c1nnn2Cc1cccc(Cl)c1	13.2 µM
O=C1CC(c2nc3ccccc3n2CCOc2ccc(Cl)cc2)CN1c1ccccc1 (stereo not drawn)	39.3 µM
COc1ccccc1N(CC(=O)N1c2ccccc2CC1C)S(=O)(=O)c1ccc(F)cc1 (stereo not drawn)	> 40 µM (inactive)
Cc1c(NC(=O)/C=C/c2cccc(Cl)c2Cl)cccc1-n1cnnn1	> 40 µM (inactive)
COc1ccccc1NC(=O)CSC1=NC2(CCCCC2)Nc2ccccc21	> 40 µM (inactive)
N#Cc1cccc(NC(=O)Cn2cccc2-c2nc(-c3ccccc3)no2)c1	> 40 µM (inactive)
CC(C)CC1NC(=O)C2CCCN2C1=O (stereo not drawn)	> 40 µM (inactive)
Cc1cc(Nc2ccc(C(=O)NCc3ccco3)cc2)n2nc(-c3cccnc3)nc2n1	> 40 µM (inactive)
Cc1ccc(Cn2c(C(=O)O)c(CNCc3ccco3)c3ccccc32)cc1	> 40 µM (inactive)
Cc1[nH]c2ccc(F)cc2c(=O)c1CN1CCCCC1	> 40 µM (inactive)
COc1ccc(Cl)cc1NC(=O)COC(=O)c1cc2ccccc2oc1=O	17.5 µM
CC(=O)c1ccc(N2CCN(S(=O)(=O)c3cc4c(cc3C)NC(=O)CO4)CC2)cc1	> 40 µM (inactive)
O=C(NCCc1nc2ccccc2n1CCOc1ccccc1Cl)C1CCCCC1	36.8 µM
Cc1cccc(C(=O)Nc2cccc(SC(C(=O)Nc3ccc(O)c(C(=O)O)c3)c3ccccc3)c2)c1 (stereo not drawn)	> 40 µM (inactive)
COc1cc(NC(=O)Cn2nc(-c3ccc(F)cc3)ccc2=O)ccc1-n1cnnn1	> 40 µM (inactive)
O=C(COC(=O)c1cccc([N+](=O)[O-])c1)Nc1cccc(Oc2ccccc2)c1	> 40 µM (inactive)
COc1ccccc1NC(=O)c1nc(-c2cn(-c3cccc(F)c3)nn2)no1	21.1 µM
CCOc1cccc(-c2noc(-c3nn(-c4ccccc4)ccc3=O)n2)c1	> 40 µM (inactive)

The remaining lines, values ahead:

IC50	SMILES
27.6 µM	O=C(CCn1c(=O)c2ccccc2n(Cc2ccc(F)cc2Cl)c1=O)NCc1ccco1
7.42 µM	Cc1cccc(C(=O)Nc2cccc(SC(C(=O)Nc3ccc(Cl)c(C(=O)O)c3)c3ccccc3)c2)c1 (stereo not drawn)
21.7 µM	CCc1ccc(NC(=O)C(C)OC(=O)/C=C/c2ccc(S(=O)(=O)Nc3cccc(S(N)(=O)=O)c3)cc2)cc1 (stereo not drawn)
> 40 µM (inactive)	Cc1cc(C)cc(NC(=O)C2CC(=O)Nc3nc4ccccc4n32)c1 (stereo not drawn)
> 40 µM (inactive)	Cc1nc2c(c(C)c1CCC(=O)Nc1ccccc1F)c(=O)n(C)c(=O)n2C
> 40 µM (inactive)	O=C(c1ccc2cc[nH]c2c1)N1CCC(Nc2cccnc2)C1 (stereo not drawn)
24.9 µM	Nc1ncnc2c1ncn2[C@@H]1O[C@H](CO)C[C@@H]1O
23.2 µM	CC1CCCN(S(=O)(=O)c2ccc(-n3cnc(C(=O)NC4CC4)c3)nc2)C1 (stereo not drawn)
> 40 µM (inactive)	CSc1nc(N)c2c(n1)N[C@H]1OC[C@H](O)[C@H](O)[C@H]1N2
> 40 µM (inactive)	Nc1c(-c2ccc(Cl)cc2)cnc2cc(-c3ccc(Cl)c(Cl)c3)nn12
> 40 µM (inactive)	COc1ccc2[nH]c(=O)c(CN(C)C(=O)c3ccc([N+](=O)[O-])cc3)cc2c1
> 40 µM (inactive)	N#Cc1ccc(NC(=O)Nc2cccn(Cc3ccccc3F)c2=O)cc1
28.5 µM	Cn1cc(NC(=O)Nc2cccc(C(F)(F)F)c2)c2ccccc2c1=O
25.8 µM	COc1ccc(NC(=O)CC(=O)c2ccc([N+](=O)[O-])cc2)cc1S(=O)(=O)Nc1ccc(Cl)cc1
> 40 µM (inactive)	Cc1ccc([N+](=O)[O-])cc1S(=O)(=O)Nc1cc2sc(=O)oc2c2ccccc12
> 40 µM (inactive)	CN1CC(c2ncn[nH]2)c2cc(C(=O)NCc3cccc(F)c3)ccc21 (stereo not drawn)
> 40 µM (inactive)	COc1ccc(OC)c(NC(=O)c2cc(Cl)ccc2OC)c1

IC50	SMILES
21.6 µM	COc1ccc(-c2cc(-c3ccccc3)nc(SCC(N)=O)c2C#N)cc1OC
> 40 µM (inactive)	Cc1ccc(NC(=O)c2cc(-c3ccncc3)n[nH]2)cc1Cl
> 40 µM (inactive)	COc1ccc2c(c1)CCc1c-2nc2ccccc2c1N1CCOCC1
> 40 µM (inactive)	Cc1c(C)n(-c2ccccc2)c2ncn(CC(=O)NCc3cccc(F)c3)c(=O)c12
25 µM	CCc1ccccc1NC(=O)Cn1c(SCc2ccc(F)cc2)nc2cccnc21
> 40 µM (inactive)	O=C(Cn1c(=O)c2cccn2c2ccccc21)NCc1ccc(F)cc1
13.4 µM	COc1ccc(Cl)cc1NC(=O)Cn1c(=O)n(CCCCC(=O)NCCc2ccccc2)c(=O)c2ccccc21
24.9 µM	COc1cccc(C(=O)Nc2ccc(SC(C)C(=O)Nc3ccc(C(N)=O)cc3)cc2)c1 (stereo not drawn)
> 40 µM (inactive)	COc1ccc(NC(=O)Cn2cc(C(=O)c3ccc(F)cc3)c(=O)c3cc(C)ccc32)cc1OC
> 40 µM (inactive)	Cc1ccc(S(=O)(=O)NCc2ccc(C(=O)NCCc3ccc(S(N)(=O)=O)cc3)cc2)cc1
19.3 µM	CCCCCCCCCCCCCCCc1cc(O)cc(O)c1C(=O)O
> 40 µM (inactive)	COc1cccc(C2c3[nH]c4ccccc4c3C[C@@H]3C(=O)N(CC(O)c4ccccc4)CC(=O)N23)c1 (stereo partly drawn)
26 µM	Cc1ccc(NC(=O)CSc2nnc(-c3n[nH]c4c3CCC4)n2N)cc1C
> 40 µM (inactive)	COc1ccc(-c2nc(-c3cc4cc(OC)ccc4[nH]c3=O)no2)cc1
> 40 µM (inactive)	Cc1c(-c2nc(-c3ccccc3Cl)no2)nnn1-c1cccc(F)c1
15.5 µM	Cc1cc(OCC(=O)Nc2ccc3c(c2)NC(=O)CO3)ccc1Cl
18.3 µM	COc1ccc([N+](=O)[O-])cc1NC(=O)COC(=O)c1ccc2[nH]c3c(c2c1)CCCC3
